PubChem BioAssay (NCI)
Where “and” joins values, the source holds several entries; their conditions need not be identical. Equal values may be shown once.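 All cell lines were grown in 96-well plates and treated with compound for 48 hours. Abbreviation: GI50, concentration required for 50% inhibition of growth. TGI denotes the concentration required for complete inhibition of growth.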 Where a SMILES comes first, the peptide text is derived from it. The star is where a group is joined. Boc = CC(C)(C)OC(=O)*

Key:
Experiment in all cases: NCI anticancer screen, dose series, 48 h
[1] = test system: A498 renal
[2] = test system: CCRF-CEM leukemia
[3] = test system: HL-60(TB) leukemia
[4] = test system: HS 578T breast
[5] = test system: M14 melanoma
[6] = test system: MCF7 breast
[7] = test system: NCI-H23 lung
[8] = test system: NCI/ADR-RES ovarian
[9] = test system: OVCAR-4 ovarian
[10] = test system: SK-MEL-5 melanoma
[11] = test system: SK-OV-3 ovarian
[12] = test system: SR leukemia
[13] = test system: BT-549 breast

Row | SMILES | TGI [1] | TGI [2] [µM] | TGI [3] [µM] | TGI [4] [µM] | TGI [5] | TGI [6] [µM] | TGI [7] [µM] | TGI [8] [µM] | TGI [9] [µM] | TGI [10] | TGI [11] [µM] | TGI [12] [µM] | TGI [13] [µM] | GI50 [1] | GI50 [8] | GI50 [10] [µM] | GI50 [11]
1 | COC(=O)CC[N+]1([O-])CC1 | > 100 µM | > 100 | > 100 | > 100 | > 100 µM | > 100 | > 100 | > 100 | > 100 | > 100 µM | > 100 | > 100 | – | – | – | – | –
2 | CC1=CC(=C(c2ccc(N)c(C)c2)c2ccc(N)c(C)c2)C=CC1=N | > 100 µM | 23 | 17.5 | – | 18.3 µM | – | 12.5 | – | 52.8 | 5.75 µM | 30.4 | 18.3 | – | – | – | – | –
3 | CCC(C)C1=C(O)[N+]2([O-])Oc3ccc(-c4c(O)c(O)c(-c5ccc(O)cc5)c(OC(C)=O)c4OC(C)=O)cc3OC2(C(C)CC)C(=O)N1O (stereo not given) | > 50 µM | 9.65 | > 50 | – | > 50 µM | > 50 | > 50 | > 50 | > 50 | > 50 µM | > 50 | > 50 | – | – | – | – | –
4 | CCOC(=O)/C(=C\NC[C@@H](C)O)c1nc2ccccc2[nH]1 | > 100 µM | – | 90.4 | – | > 100 µM | > 100 | > 100 | > 100 | > 100 | > 100 µM | > 100 | 84.3 | > 100 | – | – | – | –
5 | CC[N+](C)(C)c1ccc(C(=C2C=CC(=[N+](C)C)C=C2)c2ccc(N(C)C)cc2)cc1 | 48.4 µM | 33.5 | 6 | – | 31.4 µM | – | 55 | – | 38.3 | 26.9 µM | 55 | 35.6 | – | – | – | – | –
6 | CCOC(=O)c1csc(NC(=O)CN2CCCCC2)n1 | > 100 µM | > 100 | > 100 | > 100 | > 100 µM | > 100 | > 100 | > 100 | > 100 | > 100 µM | > 100 | – | – | – | – | – | –
7 | COC(=O)CC(SCCO)SCCO | > 100 µM | > 100 | > 100 | > 100 | > 100 µM | – | > 100 | > 100 | > 100 | > 100 µM | > 100 | > 100 | – | – | – | – | –
8 | O=S(=O)(O)c1cccc2ccc(O)c(N=Nc3ccc(S(=O)(=O)c4ccc(N=Nc5c(O)ccc6cccc(S(=O)(=O)O)c56)cc4)cc3)c12 | – | > 100 | > 100 | > 100 | > 100 µM | – | > 100 | > 100 | > 100 | > 100 µM | > 100 | – | > 100 | – | – | – | –
9 | N#CCN(Cc1ccccc1)[C@H]1CCC[C@]1(O)/C=C/c1ccc2c(c1)OCO2 | > 100 µM | 53.1 | 34.9 | 43 | 30.2 µM | 39.6 | 69.2 | 42 | > 100 | 30.1 µM | > 100 | 40.2 | – | – | – | – | –
10 | C(=C\c1ccccc1)/Cn1nc(-c2ccccc2)nc1-c1cnccn1 | – | > 100 | > 100 | – | > 100 µM | > 100 | > 100 | – | > 100 | > 100 µM | > 100 | > 100 | > 100 | – | – | – | –
11 | N#Cc1cccc(Nc2ccccc2SSc2ccccc2Nc2cccc(C#N)c2)c1 | – | 14.9 | 14.8 | > 14.6 | 18.6 µM | 16.5 | > 21.5 | 19.7 | > 21.5 | 17 µM | > 21.5 | – | – | – | – | – | –
12 | COc1cccc2c1C(=O)c1c(O)c3c(c(O)c1C2=O)CC(O)(C(C)=O)CC3OC1CC([N+](C)(C)C)C(O)C(C)O1 (stereo not given) | > 100 µM | > 100 | > 100 | – | > 100 µM | – | > 100 | – | > 100 | > 100 µM | > 100 | > 100 | – | – | – | – | –
13 | O=S(=O)(O)c1cc(S(=O)(=O)O)c2c(N=Nc3ccccc3)c(O)ccc2c1 | > 100 µM | > 100 | – | > 100 | > 100 µM | – | > 100 | > 100 | > 100 | > 100 µM | > 100 | – | > 100 | – | – | – | –
14 | O=c1ccc(-c2ccc(-n3ccnc3)cc2)nn1CCO | > 100 µM | > 100 | > 100 | > 100 | > 100 µM | > 100 | > 100 | – | > 100 | > 100 µM | > 100 | > 100 | > 100 | – | – | – | –
15 | CCCCC1=C(C(=O)N2CCOCC2)C2(OCCO2)C1Cl (stereo not given) | > 100 µM | > 100 | > 100 | > 100 | 33.9 µM | > 100 | > 100 | > 100 | > 100 | 39.6 µM | > 100 | – | – | – | – | – | –
16 | C=C[C@@]1(C)CC(=O)[C@]2(O)[C@@]3(C)[C@@H](OC(C)=O)CCC(C)(C)[C@@H]3[C@H](O)[C@H](OC(C)=O)[C@@]2(C)O1 | > 100 µM | – | – | – | > 100 µM | > 100 | > 100 | > 100 | > 100 | – | > 100 | > 100 | > 100 | – | – | – | –
17 | CC1=NN(c2cccc(Cl)c2)C(=N/c2nc3ccccc3s2)/C1=C\c1ccccc1O | 52.4 µM | > 100 | 80.6 | 56.5 | > 100 µM | > 100 | 70.1 | 63.7 | > 100 | 46.2 µM | 81.1 | 77.3 | – | – | – | – | –
18 | O=[N+]([O-])/C(C(Cl)=C(Cl)Cl)=C(\Nc1cccc2cccnc12)Sc1ccccc1 | 69.4 µM | > 100 | – | 38 | > 100 µM | > 100 | 37.6 | 63.5 | 51.4 | – | > 100 | – | 48 | – | – | – | –
19 | CC(C)OP(=O)(OC(C)C)c1nn(-c2ccc([N+](=O)[O-])cc2)c(=N)s1 | > 100 µM | > 100 | > 100 | – | > 100 µM | – | > 100 | – | > 100 | > 100 µM | > 100 | – | – | – | – | – | –
20 | CC[C@@]1(O)C(=O)OCc2c1cc1n(c2=O)Cc2c-1nc1ccccc1c2C=Nc1ccc(N[C@@H]2c3cc4c(cc3[C@@H](c3cc(OC)c(O)c(OC)c3)[C@H]3C(=O)OC[C@@H]32)OCO4)cc1 | 1.72 µM and 0.261 µM | > 100 | > 100 | > 100 | 0.742 µM and 0.253 µM | – | 0.133 | – | > 56 | 0.309 µM and 0.366 µM | 9.93 | 28.2 | – | 0.21 µM and 0.0448 µM | 0.0449 µM and < 0.01 µM | 0.0255 | 0.668 µM and 0.141 µM
21 | COC(=O)/C=C/COCC1C2CCC(=O)C21 (stereo not given) | – | > 100 | – | – | > 100 µM | > 100 | > 100 | > 100 | > 100 | > 100 µM | > 100 | > 100 | > 100 | – | – | – | –
22 | CC1CC/C(=C\c2ccc(Cl)cc2)C(=O)/C1=C\c1ccc(Cl)cc1 (stereo not given) | 17.7 µM | > 100 | – | 93.8 | 48.8 µM | > 100 | – | – | – | 40.1 µM | > 100 | – | 50.3 | – | – | – | –
23 | CCOC(=O)C12C3CCC1C2C(=O)C3 (stereo not given) | – | > 100 | – | – | > 100 µM | > 100 | > 100 | > 100 | > 100 | > 100 µM | > 100 | > 100 | > 100 | – | – | – | –
24 | COC(=O)C(Cc1c[nH]c2ccccc12)NC(=O)C(Cc1c[nH]c2ccccc12)NC(=O)C(Cc1c[nH]c2ccccc12)NC(=O)C(Cc1c[nH]c2ccccc12)NC(=O)C(Cc1c[nH]c2ccccc12)NC(=O)OC(C)(C)C (stereo not given) (Boc-WWWWW-OMe; configuration not given here) | – | > 100 | 81.6 | – | > 100 µM | > 100 | > 100 | – | > 100 | 56.5 µM | – | > 100 | > 100 | – | – | – | –
25 | COc1nc(N)nc2c1n(C)c[n+]2C | > 100 µM | > 100 | > 100 | > 100 | > 100 µM | – | > 100 | > 100 | – | > 100 µM | > 100 | – | > 100 | – | – | – | –
26 | C[C@@H]1C(=O)O[C@@H]2C[C@@]1(C)[C@@H]1C(=O)C3(O)OC14C2(C)OC(=O)[C@@]4(O)CCC1C3C(O)C=C2CC=CC(=O)[C@@]21C (stereo not given in full) | – | 40.7 | 40.8 | 50.7 | 90.8 µM | > 100 | – | > 100 | > 100 | > 100 µM | > 100 | 47.8 | – | – | – | – | –
27 | CNc1nc2c(C)ccc3nc(N(C)C)nc-3c2n1C | > 10 µM | > 10 | – | > 10 | > 10 µM | > 10 | > 10 | > 10 | > 10 | > 10 µM | > 10 | – | > 10 | – | – | – | –
28 | [N-]=[N+]=NC1(c2ccccc2)C(=O)c2cccc3c4ccccc4n(c23)C1=O (stereo not given) | > 100 µM | > 100 | – | > 100 | > 100 µM | > 100 | > 100 | > 100 | > 100 | > 100 µM | > 100 | – | > 100 | – | – | – | –
